Series [1] deals with Human immunodeficiency virus 1. Description: Antiviral activity against HIV1 NL4-3 infected in human MT4 cells assessed as reduction in p24 Gag protein production after 7 days by automated chemiluminescent enzyme immunoassay. The conditions noted are these: Human immunodeficiency virus 1, NL4-3, MT4, 168 h. Type of series: functional, organism-based.
Series [2] concerns Human immunodeficiency virus 1. The series can be described thus: Antiviral activity against Atazanavir-resistant HIV1 infected in human MT4 cells assessed as reduction in p24 Gag protein production after 7 days by automated chemiluminescent enzyme immunoassay. Type of series: functional, organism-based. To be noted: Human immunodeficiency virus 1, MT4, 168 h.
The subject of series [3] is Human immunodeficiency virus 1. The series can be described thus: Antiviral activity against darunavir-resistant HIV1 at passage 30 infected in human MT4 cells assessed as reduction in p24 Gag protein production after 7 days by automated chemiluminescent enzyme immunoassay. The conditions noted are these: Human immunodeficiency virus 1, MT4, 168 h. Type of series: functional, organism-based.

Series [4] deals with Human immunodeficiency virus 1. Description: Antiviral activity against amprenavir-resistant HIV1 infected in human MT4 cells assessed as reduction in p24 Gag protein production after 7 days by automated chemiluminescent enzyme immunoassay. Type of series: functional, organism-based. The conditions noted are these: Human immunodeficiency virus 1, MT4, 168 h.
Series [5] deals with Human immunodeficiency virus 1. Description: Antiviral activity against lopinavir-resistant HIV1 infected in human MT4 cells assessed as reduction in p24 Gag protein production after 7 days by automated chemiluminescent enzyme immunoassay. Type of series: functional, organism-based. To be noted: Human immunodeficiency virus 1, MT4, 168 h.
Series [6] relates to Human immunodeficiency virus 1. The series can be described thus: Antiviral activity against darunavir-resistant HIV1 at passage 51 infected in human MT4 cells assessed as reduction in p24 Gag protein production after 7 days by automated chemiluminescent enzyme immunoassay. Type of series: functional, organism-based. To be noted: Human immunodeficiency virus 1, MT4, 168 h.
Series [7] relates to Human immunodeficiency virus 1. Description: Antiviral activity against darunavir-resistant HIV1 at passage 21 infected in human MT4 cells assessed as reduction in p24 Gag protein production after 7 days by automated chemiluminescent enzyme immunoassay. Type of series: functional, organism-based. To be noted: Human immunodeficiency virus 1, MT4, 168 h.
A short description of series [8]: Selectivity ratio of CC50 for human MT4 cells to IC50 for HIV1 NL4-3 infected in human MT4 cells. Type of series: toxicity, cell-based. To be noted: MT4 cells infected with HIV1 NL4-3, read-out: Ratio CC50/IC50.
In another series the test system is MT4. Description: Cytotoxicity against human MT4 cells after 7 days by MTT assay. Type of series: cell-based. The conditions noted are these: mt4, 168 h. For orientation: Tetrazolium dyes change colour on reduction, which living cells bring about.
In the next series the target is Protease (Human immunodeficiency virus 1, UniProt Q9YQ12). The series can be described thus: Inhibition of HIV1 wild type NL4-3 protease expressed in Escherichia coli Rosetta (DE3) pLysS using Abz-Thr-Ile-Nle-Phe-(pNO2)-Gln-Arg-NH2 as substrate preincubated for 5 to 10 mins followed by substrate addition measured after 1 hr by fluorescence assay.
Protease, sequence (Q9YQ12 whole entry): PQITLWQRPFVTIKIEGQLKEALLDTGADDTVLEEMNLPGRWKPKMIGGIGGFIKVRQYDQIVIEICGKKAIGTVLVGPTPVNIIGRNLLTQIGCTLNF

The term IC50 denotes the concentration at which inhibition is half-maximal. Regarding `CC(C)(C)NC(=O)[C@@H]1C[C@@H]2CCCC[C@@H]2CN1C[C@@H](O)[C@H](Cc1ccccc1)NC(=O)[C@H](CC(N)=O)NC(=O)c1ccc2ccccc2n1`, the IC50 in series [1] was found to be 21 nM.
For `CC(C)CN(C[C@@H](O)[C@H](Cc1ccccc1)NC(=O)O[C@H]1CCOC1)S(=O)(=O)c1ccc(N)cc1`, the IC50 in series [1] was 431 nM; in series [2], more than 1000 nM; in series [3], more than 1000 nM; in [4], more than 1000 nM; in series [5], more than 1000 nM; in series [6], more than 1000 nM. In [7], the IC50 was more than 1000 nM.
Take `CC(C)CN(C[C@@H](O)[C@H](Cc1ccccc1)NC(=O)O[C@H]1CO[C@H]2OCC[C@H]21)S(=O)(=O)c1ccc(N)cc1`: the IC50 in series [1] was 3.2 to 3.5 nM; in [6] it was more than 1000 nM.
As a reminder, the CC50 is the concentration at which the toxic effect on the cells reaches its halfway point. Higher therefore signals better tolerance by the cells. One may read the Ki as a measure of affinity in units of concentration, obtained from inhibition or displacement. Consider `COc1ccc(S(=O)(=O)N(CC(C)C)C[C@@H](O)[C@H](Cc2ccccc2)NC(=O)O[C@H]2C[C@H]3OC(=O)N(CC(C)C)[C@H]3C2)cc1`, for which the selectivity ratio in [8] was more than 2440. Further, the IC50 in series [2] was 33 nM; in series [3], more than 1000 nM; in series [4], 309 nM; in series [5] it was 615 nM; in [6], more than 1000 nM; in series [7], more than 1000 nM. The CC50 in the series with MT4 is more than 100000 nM. The compound further registered a Ki on Protease of 0.16 nM.
Take `COc1ccc(S(=O)(=O)N(CC(C)C)C[C@@H](O)[C@H](Cc2ccccc2)NC(=O)O[C@H]2C[C@H]3OC(=O)N(C)[C@H]3C2)cc1`: the half-inhibitory concentration (IC50) in series [1] came out at 36 nM. In [8], the selectivity ratio is more than 2780. The compound also returned an inhibition constant (Ki) on Protease of 0.03 nM.
`COc1ccc(S(=O)(=O)N(CC(C)C)C[C@@H](O)[C@H](Cc2ccccc2)NC(=O)O[C@H]2C[C@H]3OC(=O)N(c4ccccc4OC)[C@H]3C2)cc1`: in series [1], the concentration for half-maximal inhibition (IC50) amounted to 251 nM. In addition, affinity on Protease was put at a Ki of 0.08 nM.
Turning to `COc1ccc(S(=O)(=O)N(CC(C)C)C[C@@H](O)[C@H](Cc2ccccc2)NC(=O)O[C@@H]2C[C@@H]3OC(=O)N(C)[C@@H]3C2)cc1`, the half-inhibitory concentration (IC50) in [1] stood at 436 nM. Also, the selectivity ratio in series [8] was more than 229. The same compound had a CC50 in the series on MT4 of more than 100000 nM. The affinity on Protease corresponds to a Ki of 0.16 nM.
In the case of `CC(C)CN(C[C@@H](O)[C@H](Cc1ccccc1)NC(=O)O[C@H]1C[C@H]2OC(=O)N(C)[C@H]2C1)S(=O)(=O)c1ccc2nc(NC3CC3)sc2c1`, the IC50 in series [1] is 28 nM. Besides, in [8], the selectivity ratio was found to be 1540. Moreover, half-maximal cytotoxicity with MT4 (CC50) was put at 43000 nM. The compound further yielded a Ki at Protease of 0.19 nM.
For the compound `COc1ccc(N2C(=O)O[C@@H]3C[C@H](OC(=O)N[C@@H](Cc4ccccc4)[C@H](O)CN(CC(C)C)S(=O)(=O)c4ccc(OC)cc4)C[C@@H]32)cc1`, the IC50 in series [1] is more than 1000 nM. Affinity on Protease was put at a Ki of 0.63 nM.
Regarding `CCCN1C(=O)O[C@@H]2C[C@H](OC(=O)N[C@@H](Cc3ccccc3)[C@H](O)CN(CC(C)C)S(=O)(=O)c3ccc(OC)cc3)C[C@@H]21`, the half-maximal inhibitory concentration (IC50) in series [1] came to 447 nM. For the same compound, on Protease, the Ki came out at 0.14 nM.
On to `COc1ccc(S(=O)(=O)N(CC(C)C)C[C@@H](O)[C@H](Cc2ccccc2)NC(=O)O[C@H]2C[C@H]3OC(=O)N(c4cccc(OC)c4)[C@H]3C2)cc1`, for which, in series [1], the IC50 is more than 1000 nM. Moreover, the Ki on Protease amounted to 92.8 nM.
In the same order, the values of `COc1ccc(S(=O)(=O)N(CC(C)C)C[C@@H](O)[C@H](Cc2ccccc2)NC(=O)O[C@H]2C[C@H]3OC(=O)N(c4ccccc4)[C@H]3C2)cc1` are more than 1000 nM and 0.33 nM.
For `C=CCN1C(=O)O[C@@H]2C[C@H](OC(=O)N[C@@H](Cc3ccccc3)[C@H](O)CN(CC(C)C)S(=O)(=O)c3ccc(OC)cc3)C[C@@H]21`, the IC50 in series [1] came to 369 nM. The compound also registered a Ki on Protease of 0.016 nM.
In the same order, the values of `COCN1C(=O)O[C@@H]2C[C@H](OC(=O)N[C@@H](Cc3ccccc3)[C@H](O)CN(CC(C)C)S(=O)(=O)c3ccc(OC)cc3)C[C@@H]21` are 84 nM and 0.016 nM.
With `COc1ccc(S(=O)(=O)N(CC(C)C)C[C@@H](O)[C@H](Cc2ccccc2)NC(=O)O[C@@H]2C[C@@H]3OC(=O)N[C@@H]3C2)cc1`, the IC50 in [1] is more than 1000 nM. Also, on Protease, affinity was put at a Ki of 1.33 nM.
As for `C=C(C)CN1C(=O)O[C@@H]2C[C@H](OC(=O)N[C@@H](Cc3ccccc3)[C@H](O)CN(CC(C)C)S(=O)(=O)c3ccc(OC)cc3)C[C@@H]21`, the IC50 is 23 to 31 nM in series [1]; 36 nM in series [2]; more than 1000 nM in [3]; 261 nM in series [4]; more than 1000 nM in [5]; more than 1000 nM in [6]. In series [7], the IC50 was more than 1000 nM. Further, the selectivity ratio in series [8] was more than 3230. This compound also had a CC50 in the series with MT4 of more than 100000 nM. Also, affinity on Protease was put at a Ki of 0.04 nM.
Regarding `COc1ccc(S(=O)(=O)N(CC(C)C)C[C@@H](O)[C@H](Cc2ccccc2)NC(=O)O[C@@H]2C[C@@H]3NC(=O)O[C@@H]3C2)cc1`, the half-maximal inhibitory concentration (IC50) in [1] is 48.3 nM. The selectivity ratio in series [8] was more than 2070. Also, the CC50 in the series with MT4 was more than 100000 nM. In addition, affinity on Protease was put at a Ki of 0.0012 nM.
As for `COC(=O)N[C@H](C(=O)N[C@@H](Cc1ccccc1)[C@@H](O)CN(Cc1ccc(-c2ccccn2)cc1)NC(=O)[C@@H](NC(=O)OC)C(C)(C)C)C(C)(C)C` [ATAZANAVIR], the IC50 in series [1] is 0.89 nM; in series [2], more than 1000 nM; in series [3], more than 1000 nM; in series [4], 2 nM; in [5] it was 293 nM; in series [6], more than 1000 nM. In addition, in series [7], the 50% inhibitory concentration (IC50) is more than 1000 nM.
`Cc1cccc(C)c1OCC(=O)N[C@@H](Cc1ccccc1)[C@@H](O)C[C@H](Cc1ccccc1)NC(=O)[C@H](C(C)C)N1CCCNC1=O` [LOPINAVIR]: the IC50 is 6 nM in series [1]; 311 nM in series [2]; more than 1000 nM in series [3]; 218 nM in series [4]; more than 1000 nM in series [5]; more than 1000 nM in [6]. For the same compound, the IC50 in series [7] was more than 1000 nM.

Source of the values: ChEMBL document CHEMBL4270667, “Design and Synthesis of Potent HIV-1 Protease Inhibitors Containing Bicyclic Oxazolidinone Scaffold as the P2 Ligands: Structure-Activity Studies and Biological and X-ray Structural Studies” (J Med Chem, 2018).
